In article PMC12333015, “Profiling the Impact of mGlu7/Elfn1 Protein Interactions on the Pharmacology of mGlu7 Allosteric Modulators” (ACS Chemical Neuroscience, 2025):
Where two headings read alike, the source gives them in different places. Each block holds one compound with its values, some of them ahead of it.

Legend:
rat mGlu7 = molecular target: T1, rat mGlu7 (Rattus norvegicus, UniProt P35400); assay: Thallium flux assay, mGlu7/GIRK HEK293 cells cocultured with pcDNA3 vector control cells; format: cell-based; conditions: for Emax: HEK293, read-out: PAM Maximal response, pcDNA; for Emax / EC50: PAM concentration-response at an EC20 concentration of L-AP4; for Fold potentiation, pcDNA: fold potentiation of an EC20 concentration of L-AP4; for baseline Resp ± SEM, pcDNA / Maximal Resp ± SEM, pcDNA / response below baseline at inactive L-AP4 concentrations / % inhibition Resp ± SEM, pcDNA: 10 μM compound; for baseline Resp ± SEM, pcDNA: average response at bottom three L-AP4 concentrations, Percent L-AP4/pcDNA/DMSO Max; for Maximal Resp ± SEM, pcDNA: average response at top two L-AP4 concentrations, normalized to L-AP4 max with pcDNA/DMSO; for response below baseline at inactive L-AP4 concentrations: observed regardless of the presence of Elfn1; for % inhibition Resp ± SEM, pcDNA: of maximal L-AP4 response; for IC50: compound concentration-response in presence of 600 μM L-AP4 (EC80), read-out: compound pIC50 ± SEM, pcDNA (converted); for compound Min Resp ± SEM, pcDNA: minimal curve fit response, 600 μM L-AP4, maximal inhibition at 30 μM compound, normalized to 600 μM L-AP4 response
T1 construct: expressed in transfected cells; host or cells: HEK293A cells stably expressing mGlu7 and GIRK1/2
T1 sequence (P35400 35-915): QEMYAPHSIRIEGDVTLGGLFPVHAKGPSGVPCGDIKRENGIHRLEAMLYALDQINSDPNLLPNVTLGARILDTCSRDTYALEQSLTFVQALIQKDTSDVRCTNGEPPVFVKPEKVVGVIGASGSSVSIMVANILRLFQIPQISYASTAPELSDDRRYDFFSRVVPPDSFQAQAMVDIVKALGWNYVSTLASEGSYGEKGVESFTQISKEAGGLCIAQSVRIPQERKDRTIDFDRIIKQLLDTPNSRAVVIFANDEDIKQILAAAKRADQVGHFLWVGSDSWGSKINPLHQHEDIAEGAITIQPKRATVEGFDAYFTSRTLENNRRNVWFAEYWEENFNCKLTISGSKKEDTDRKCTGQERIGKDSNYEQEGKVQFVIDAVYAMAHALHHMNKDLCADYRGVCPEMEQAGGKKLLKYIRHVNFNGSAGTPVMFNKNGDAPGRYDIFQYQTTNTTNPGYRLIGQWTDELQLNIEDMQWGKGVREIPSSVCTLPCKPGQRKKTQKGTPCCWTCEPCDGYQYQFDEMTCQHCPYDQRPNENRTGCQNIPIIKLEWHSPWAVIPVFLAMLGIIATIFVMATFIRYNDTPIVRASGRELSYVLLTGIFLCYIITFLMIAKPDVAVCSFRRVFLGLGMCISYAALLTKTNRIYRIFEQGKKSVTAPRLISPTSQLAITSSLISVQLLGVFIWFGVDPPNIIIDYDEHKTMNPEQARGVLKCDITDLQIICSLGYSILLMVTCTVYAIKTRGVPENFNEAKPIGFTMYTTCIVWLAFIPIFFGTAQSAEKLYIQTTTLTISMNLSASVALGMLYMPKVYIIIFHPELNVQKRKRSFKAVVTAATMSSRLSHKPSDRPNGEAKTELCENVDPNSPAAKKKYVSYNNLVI
Description: (§1) We began our evaluation of mGlu7 ligands in the presence and absence of Elfn1 by using a coculture system as previously described , with several modifications (Figure ). Cells expressing rat mGlu7 and coexpressing G protein inwardly rectifying potassium (GIRK) channels 1 and 2 were cocultured with cells expressing either an empty pcDNA3 vector control or a plasmid containing Elfn1 in the pcDNA3 backbone. We then evaluated the activity of the orthosteric agonist L-AP4 and measured effects on maximal response and pEC50. All responses were normalized to the maximal effect of L-AP4 in the presence of the pcDNA3 control plasmid.
(§2) 2 Assay design and workflow. (Left panel) Cells expressing rat mGlu7/GIRK (pink) were cocultured with pcDNA3 (blue) or Elfn1 (purple). […] (Right panel) The effect on the concentration–response curve in the presence (purple) or absence (blue) of Elfn1 can be seen by a change in efficacy, potency, and/or basal response.
(§3) HEK293A cells stably expressing mouse Elfn1 or pcDNA3 were maintained in growth medium containing 90% Dulbecco’s Modified Eagle Media (DMEM), 10% fetal bovine serum (FBS), 100 units/mL penicillin/streptomycin, 20 mM HEPES, 1 mM sodium pyruvate, 2 mM L-glutamine, 1× nonessential amino acids, and 700 μg/mL G418 sulfate. HEK mGlu7/GIRK cells were maintained in a growth medium with 90% DMEM/F12, 10% dialyzed FBS, 100 units/mL penicillin/streptomycin, 20 mM HEPES, 1 mM sodium pyruvate, 2 mM L-glutamine, 1× nonessential amino acids, 700 μg/mL G418 sulfate, and 600 ng/mL puromycin. All cell culture reagents were purchased from Invitrogen (Carlsbad, CA).
(§4) Thallium flux assays were performed as previously described. A mixture of HEK293A mGlu7/GIRK cells and pcDNA3 or Elfn1-expressing HEK293A cells (5000/15,000 cells/20 μL/well for agonist and PAM experiments; 7500/15,000 cells/20 μL/well for NAM experiments) was seeded in 384-well, amine-coated assay plates (Greiner Bio-One, Monroe, NC). Cells were incubated overnight in a humidified 5% CO2 cell culture incubator at 37 °C. […] Following a 1 h incubation at room temperature, the dye loading solution was replaced with 20 μL/well assay buffer and the plates were loaded into a Hamamatsu FDSS 7000 (Bridgewater, NJ). […] Thallium flux data were analyzed by first dividing each point in each wave by the first point in that wave and then subtracting the average of the vehicle control response. The slopes of these vehicle control-subtracted waves were calculated over ten data points beginning 2 s after thallium stimulus addition and fit to a three-parameter logistic equation in GraphPad Prism (La Jolla, CA). In most cases, the final data were normalized to the response of the mGlu7/pcDNA3 with vehicle and 5 mM L-AP4 unless otherwise noted. Potency (pEC50) and maximum responses (E max) induced by compounds were determined using a four-parameter logistical equation in Prism. Basal activity was calculated with data points at the three lowest test concentrations. Maximum activity was calculated with data points at two highest concentrations. All experiments were replicated at least three times in duplicate or triplicate.

mGlu7/Elfn1 = molecular target: T2, mGlu7/Elfn1 (Rattus norvegicus, UniProt P35400); assay: Thallium flux assay, mGlu7/GIRK HEK293 cells cocultured with Elfn1-expressing cells; format: cell-based, mouse Elfn1; conditions: for Emax: HEK293, read-out: PAM Maximal response, Elfn1; for Fold potentiation, Elfn1: fold potentiation of an EC20 concentration of L-AP4; for baseline Resp ± SEM, Elfn1 / Maximal Resp ± SEM, Elfn1 / % inhibition Resp ± SEM, Elfn1: 10 μM compound; for baseline Resp ± SEM, Elfn1: average response at bottom three L-AP4 concentrations, Percent L-AP4/pcDNA/DMSO Max; for Maximal Resp ± SEM, Elfn1: average response at top two L-AP4 concentrations, normalized to L-AP4 max with pcDNA/DMSO; for % inhibition Resp ± SEM, Elfn1: of maximal L-AP4 response; for IC50: compound concentration-response in presence of 600 μM L-AP4 (EC80), read-out: compound pIC50 ± SEM, Elfn1 (converted); for compound Min Resp ± SEM, Elfn1: minimal curve fit response, 600 μM L-AP4, maximal inhibition at 30 μM compound, normalized to account for lower agonist max with Elfn1
T2 construct: expressed in transfected cells; host or cells: HEK293A mGlu7/GIRK cells cocultured with HEK293A polyclonal cells stably expressing Elfn1-Myc (pcDNA3)
T2 sequence (P35400 35-915): as above
T2 sequence (Q8C8T7 26-828 partner): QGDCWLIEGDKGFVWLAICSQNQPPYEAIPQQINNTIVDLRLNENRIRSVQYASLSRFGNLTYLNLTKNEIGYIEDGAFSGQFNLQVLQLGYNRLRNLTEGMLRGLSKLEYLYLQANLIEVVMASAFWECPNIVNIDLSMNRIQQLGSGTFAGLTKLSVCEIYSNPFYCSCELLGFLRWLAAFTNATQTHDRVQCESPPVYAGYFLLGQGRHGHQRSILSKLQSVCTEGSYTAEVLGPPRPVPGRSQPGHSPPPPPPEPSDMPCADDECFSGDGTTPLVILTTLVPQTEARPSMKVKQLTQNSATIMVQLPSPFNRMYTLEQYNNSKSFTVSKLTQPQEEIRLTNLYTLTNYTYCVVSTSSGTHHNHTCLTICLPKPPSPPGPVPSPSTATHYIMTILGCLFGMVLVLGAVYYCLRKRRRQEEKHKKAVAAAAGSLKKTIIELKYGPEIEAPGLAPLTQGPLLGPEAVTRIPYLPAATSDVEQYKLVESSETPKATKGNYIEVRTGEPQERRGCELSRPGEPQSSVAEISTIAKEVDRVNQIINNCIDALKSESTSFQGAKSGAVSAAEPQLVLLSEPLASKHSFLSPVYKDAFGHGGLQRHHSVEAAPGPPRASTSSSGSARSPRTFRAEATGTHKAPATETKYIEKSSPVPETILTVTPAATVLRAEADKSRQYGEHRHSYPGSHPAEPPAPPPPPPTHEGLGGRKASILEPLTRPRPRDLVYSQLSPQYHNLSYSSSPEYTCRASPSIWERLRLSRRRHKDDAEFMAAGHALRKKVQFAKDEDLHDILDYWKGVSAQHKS
Description: as §1, §2
HEK293A polyclonal cells stably expressing either Elfn1 or empty vector were passaged in media (Dulbecco’s modified Eagle medium (DMEM), supplemented with 10% fetal bovine serum (FBS), 20 mM N-(2-hydroxyethyl)-piperazine-N′-ethanesulfonic acid (HEPES), 1 mM Na pyruvate, 2 mM Glutamax, 0.1 mM nonessential amino acids, 1× antibiotic/antimycotic) under G418 (700 μg/mL) selection to maintain expression.
as §3
as §4, with “NJ). Data were acquired at 1 Hz (excitation 470 ± 20 nm, emission 540 ± 30 nm) for 10 s, followed by the addition of 20 μL/well of 10 μM NAM/PAM/DMSO, followed by an additional 4 min of data collection.” for “NJ).”, “Prism.” for “Prism. Basal activity was calculated with data points at the three lowest test concentrations. Maximum activity was calculated with data points at two highest concentrations. All experiments were replicated at least three times in duplicate or triplicate.”

[1] = 10 μM PAM, L-AP4 CRC, normalized to percent L-AP4 response with pcDNA and DMSO
[2] = PAM concentration-response at an EC20 concentration of L-AP4
[3] = 10 μM NAM, three lowest L-AP4 concentrations, normalized to mGlu7/pcDNA3 vehicle L-AP4 max

baseline response ± SEM, pcDNA (rat mGlu7; [1]): 6.4±2.3%
Emax (rat mGlu7): 138 ± 5.2%
EC50 (rat mGlu7; read-out: PAM pEC50, pcDNA (converted)): 3550 nM
Fold potentiation, pcDNA (rat mGlu7): 4.4±0.3 fold
baseline response ± SEM, Elfn1 (mGlu7/Elfn1; [1]): 1.0±1.7%
Emax (mGlu7/Elfn1; [2]): 66.3 ± 3.6%
EC50 (mGlu7/Elfn1; PAM concentration-response at an EC20 concentration of L-AP4, read-out: PAM pEC50, Elfn1 (converted)): 2820 nM
Fold potentiation, Elfn1 (mGlu7/Elfn1): 2.7±0.2 fold
Compound: COC(=O)c1ccc(-n2c(C)cc(C(=O)CSc3ccc(NC(C)=O)cc3)c2C)cc1 [VU0155094]

baseline response ± SEM, pcDNA (rat mGlu7; [3]): –11.5 ± 4.7
baseline response ± SEM, Elfn1 (mGlu7/Elfn1; [3]): –5.7 ± 5.9
Compound: COc1ccc(-c2noc(-c3cc(Cl)ccc3-n3cncn3)n2)cc1OC [VU6017743]

baseline response ± SEM, pcDNA (rat mGlu7; [3]): –5.3 ± 3.7
baseline response ± SEM, Elfn1 (mGlu7/Elfn1; [3]): –0.7 ± 4.5
Compound: COc1ccc(-c2nnc(-c3cc(OC(F)(F)F)ccc3-c3cn[nH]c3)o2)cc1OC [VU6019282]

baseline response ± SEM, pcDNA (rat mGlu7; [3]): –14.5 ± 2.6
baseline response ± SEM, Elfn1 (mGlu7/Elfn1; [3]): –9.0 ± 0.9
Compound: COc1ccc(C(=O)Nc2cc(OC(F)(F)F)ccc2-n2cncn2)cc1OC [VU6010608]

baseline Resp ± SEM, pcDNA (rat mGlu7): –11.4 ± 4.8 %
Maximal Resp ± SEM, pcDNA (rat mGlu7): 1.7 ± 3.6 %
response below baseline at inactive L-AP4 concentrations (rat mGlu7): inverse agonist activity
% inhibition Resp ± SEM, pcDNA (rat mGlu7): 1.6 ± 3.5%
IC50 (rat mGlu7): 1660 nM
compound Min Resp ± SEM, pcDNA (rat mGlu7): 6.9 ± 6.5
baseline Resp ± SEM, Elfn1 (mGlu7/Elfn1): –6.5 ± 1.3 %
Maximal Resp ± SEM, Elfn1 (mGlu7/Elfn1): –13.2 ± 1.7 %
% inhibition Resp ± SEM, Elfn1 (mGlu7/Elfn1): –30.4 ± 2.9 %
IC50 (mGlu7/Elfn1): 380 nM
compound Min Resp ± SEM, Elfn1 (mGlu7/Elfn1): 2.5 ± 8.4
Compound: O=c1c(Oc2ccc(I)cc2)coc2cc(O)ccc12 [XAP044, reference compound]

baseline response ± SEM, pcDNA (rat mGlu7; [3]): –19.1 ± 2.4
baseline response ± SEM, Elfn1 (mGlu7/Elfn1; [3]): –8.1 ± 2.0
Compound: COc1cc(C(=O)Nc2cc(OC(F)(F)F)ccc2-n2cncn2)ccc1OCC1CC1 [VU6012962, N-(2-(1 H-1,2,4-triazol-1-yl)-5-(trifluoromethoxy)phenyl)-4-(cyclopropylmethoxy)-3-methox ybenzamide]

baseline Resp ± SEM, pcDNA (rat mGlu7): –21.5 ± 2.0 %
Maximal Resp ± SEM, pcDNA (rat mGlu7): –0.08 ± 1.4 %
response below baseline at inactive L-AP4 concentrations (rat mGlu7): inverse agonist activity
% inhibition Resp ± SEM, pcDNA (rat mGlu7): –0.11 ± 1.4%
IC50 (rat mGlu7): 195 nM
compound Min Resp ± SEM, pcDNA (rat mGlu7): –32.9 ± 8.0
baseline Resp ± SEM, Elfn1 (mGlu7/Elfn1): –12.7 ± 2.9 %
Maximal Resp ± SEM, Elfn1 (mGlu7/Elfn1): –10.1 ± 1.7 %
% inhibition Resp ± SEM, Elfn1 (mGlu7/Elfn1): –22.4 ± 3.4 %
IC50 (mGlu7/Elfn1): 141 nM
compound Min Resp ± SEM, Elfn1 (mGlu7/Elfn1): –28.5 ± 5.5
Compound: CCc1nc2c(o1)CC(c1ccc(C)cc1C)CC2=O (centres unmarked) [ADX71743, reference compound]

baseline response ± SEM, pcDNA (rat mGlu7; [3]): –12.5 ± 2.2
baseline response ± SEM, Elfn1 (mGlu7/Elfn1; [3]): –8.1 ± 1.1
Compound: CCCOc1ccc(C(=O)Nc2cc(OC(F)(F)F)ccc2-n2cncn2)cc1OC [VU6010953]

Compound: COc1cc(F)cc2c(N3CCN(c4ccccc4F)CC3)c(C#N)cnc12 [VU6027459]
baseline response ± SEM, pcDNA (rat mGlu7; [1]): 25.6±12.0%
Emax (rat mGlu7): 75.8 ± 5.2%
EC50 (rat mGlu7; PAM pEC50, pcDNA): 1000 nM
Fold potentiation, pcDNA (rat mGlu7): 3.0±0.4 fold
baseline response ± SEM, Elfn1 (mGlu7/Elfn1; [1]): 12.5±8.4%
Emax (mGlu7/Elfn1; [2]): 44.1 ± 4.5%
EC50 (mGlu7/Elfn1; PAM pEC50, Elfn1, PAM concentration-response at an EC20 concentration of L-AP4): 1620 nM
Fold potentiation, Elfn1 (mGlu7/Elfn1): 2.0±0.2 fold

baseline response ± SEM, pcDNA (rat mGlu7; [3]): –6.6 ± 1.8
baseline response ± SEM, Elfn1 (mGlu7/Elfn1; [3]): 0.2 ± 3.5
Compound: COc1ccc(-c2cnc(-c3cc(OC(F)(F)F)ccc3-n3cncn3)o2)cc1OC [VU6018226]
